Among the data in patent publication US11827628B2, “Compositions and methods for inhibition of the JAK pathway” (Rigel Pharmaceuticals, Inc., priority 2005, dated 2023) are IC50 values, retold here.

Molecules are shown by their SMILES. pIC50: −log10 of the molar value. Like-named read-outs stand apart in the source and are kept apart here.

For this test, the system named is Primary human T-cells. Put plainly: Primary Human T-Cell Proliferation Assay Stimulated with IL-2 (CellTiter-Glo). The test is classed as cell-based. The settings on record: read-out: IC50, Example 42. The gist of the method: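 IC50 derived from CellTiter-Glo ATP signal after 72 hours of IL-2-driven proliferation at 37° C. Cells: primary human T-cells from blood, stimulated beforehand 3-4 days on anti-CD3/anti-CD28 with IL-2, then rested from IL-2 before compound exposure in duplicate; IL-2-free wells served as unstimulated control.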

Where [1] appears, read: Homo sapiens, T-cell, primary human T-cell proliferation stimulated with IL-2.

With `N#CCOc1ccc(Nc2nc(Nc3ccc(S(N)(=O)=O)cc3)ncc2F)cc1F` [Compound I-44, N2-(4-Aminosulfonylphenyl)-N4-(4-cyanomethoxy-3-fluorophenyl)-5-fluoro-2,4-pyrimidinediamine], the pIC50 under setting [1] was 6.47.

On to `COc1cc(Nc2nc(Nc3cccc(S(N)(=O)=O)c3)ncc2F)ccc1OCC#N` [Compound I-46, N2-(3-Aminosulfonylphenyl)-N4-(4-cyanomethoxy-3-methoxyphenyl)-5-fluoro-2,4-pyrimidinediamine], for which the pIC50 under setting [1] is 6.39.

On to `COc1cc(Nc2nc(Nc3ccc(C)c(S(N)(=O)=O)c3)ncc2F)ccc1OCC#N` [Compound I-47, N2-(3-Aminosulfonyl-4-methylphenyl)-N4-(4-cyanomethoxy-3-methoxyphenyl)-5-fluoro-2,4-pyrimidinediamine], for which the pIC50 under setting [1] is 6.26.

Consider `Cc1ccc(Nc2ncc(F)c(Nc3ccc(OCC#N)c(CO)c3)n2)cc1S(N)(=O)=O` [Compound I-51, N2-(3-Aminosulfonyl-4-methylphenyl)-N4-(4-cyanomethoxy-3-hydroxymethylphenyl)-5-fluoro-2,4-pyrimidinediamine], for which the pIC50 under setting [1] was 5.67.

With `N#CCOc1ccc(Nc2nc(Nc3ccc(S(N)(=O)=O)cc3)ncc2F)cc1-c1ccn(CC#N)n1` [Compound I-52, N2-(4-Aminosulfonylphenyl)-N4-[4-cyanomethoxy-3-(1-cyanomethylpyrazol-3-yl)phenyl]-5-fluoro-2,4-pyrimidinediamine], the pIC50 under setting [1] is 5.28.

`Cc1ccc(Nc2ncc(F)c(Nc3ccc(OCC(N)=O)c(Cl)c3)n2)cc1S(N)(=O)=O` [Compound I-99, N4-(4-Aminocarbonylmethoxy-3-chlorophenyl)-N2-(3-aminosulfonyl-4-methylphenyl)-5-fluoro-2,4-pyrimidinediamine]: the pIC50 under setting [1] is 6.83.

With `Cc1cnc(Nc2ccc(S(N)(=O)=O)cc2)nc1Nc1ccc(OCC(N)=O)cc1` [Compound I-108, N4-(4-Aminocarbonylmethoxyphenyl)-N2-(4-aminosulfonylphenyl)-5-methyl-2,4-pyrimidinediamine], the pIC50 under setting [1] was 6.83.

With `CN(C)C(=O)COc1ccc(Nc2nc(Nc3ccc(S(N)(=O)=O)cc3)ncc2F)cc1Cl` [Compound I-131, N2-(4-Aminosulfonylphenyl)-N4-(3-chloro-4-dimethylaminocarbonylmethoxyphenyl)-5-fluoro-2,4-pyrimidinediamine], under setting [1], the negative-log IC50 (pIC50) is 5.42.

`CN(C)C(=O)COc1ccc(Nc2nc(Nc3cccc(S(N)(=O)=O)c3)ncc2F)cc1Cl` [Compound I-132, N2-(3-Aminosulfonylphenyl)-N4-(3-chloro-4-dimethylaminocarbonylmethoxyphenyl)-5-fluoro-2,4-pyrimidinediamine]: the pIC50 under setting [1] is 6.33.

Consider `Cc1cnc(Nc2ccc(S(N)(=O)=O)cc2)nc1Nc1ccc(OCC(=O)N(C)C)c(Cl)c1` [Compound I-134, N2-(4-Aminosulfonylphenyl)-N4-(3-chloro-4-dimethylaminocarbonylmethoxyphenyl)-5-methyl-2,4-pyrimidinediamine], for which the negative-log IC50 (pIC50) under setting [1] was 6.29.

On to `Cc1cnc(Nc2ccc(S(N)(=O)=O)cc2)nc1Nc1ccc(OCC(=O)N(C)C)c(F)c1` [Compound I-137, N2-(4-Aminosulfonylphenyl)-N4-(4-dimethylaminocarbonylmethoxy-3-fluorophenyl)-5-methyl-2,4-pyrimidinediamine], for which the pIC50 under setting [1] is 5.96.

As to `CNC(=O)COc1ccc(Nc2nc(Nc3ccc(S(N)(=O)=O)cc3)ncc2C)cc1Cl` [Compound I-149, N2-(4-Aminosulfonylphenyl)-N4-(3-chloro-4-methylaminocarbonylmethoxyphenyl)-5-methyl-2,4-pyrimidinediamine], the negative logarithm of the IC50 (pIC50) under setting [1] was 6.71.

Consider `CNC(=O)COc1ccc(Nc2nc(Nc3cccc(S(N)(=O)=O)c3)ncc2C)cc1Cl` [Compound I-150, N2-(3-Aminosulfonylphenyl)-N4-(3-chloro-4-methylaminocarbonylmethoxyphenyl)-5-methyl-2,4-pyrimidinediamine], for which, under setting [1], the pIC50 was 7.17.

`CNC(=O)COc1ccc(Nc2nc(Nc3cccc(S(N)(=O)=O)c3)ncc2C)cc1F` [Compound I-155, N2-(3-Aminosulfonylphenyl)-N4-(3-fluoro-4-methylaminocarbonylmethoxyphenyl)-5-methyl-2,4-pyrimidinediamine]: under setting [1], the pIC50 was 7.00.

In the case of `CNC(=O)COc1ccc(Nc2nc(Nc3ccc(C)c(S(N)(=O)=O)c3)ncc2C)cc1F` [Compound I-156, N2-(3-Aminosulfonyl-4-methylphenyl)-N4-(3-fluoro-4-methylaminocarbonylmethoxyphenyl)-5-methyl-2,4-pyrimidinediamine], the pIC50 under setting [1] was 6.85.

Take `C=CCNC(=O)COc1ccc(Nc2nc(Nc3cccc(S(N)(=O)=O)c3)ncc2F)cc1` [Compound I-158, N4-(4-Allylaminocarbonylmethoxyphenyl)-N2-(3-aminosulfonylphenyl)-5-fluoro-2,4-pyrimidinediamine]: the pIC50 under setting [1] is 6.35.

Take `C=CCNC(=O)COc1ccc(Nc2nc(Nc3ccc(C)c(S(N)(=O)=O)c3)ncc2F)cc1` [Compound I-159, N4-(4-Allylaminocarbonylmethoxyphenyl)-N2-(3-aminosulfonyl-4-methylphenyl)-5-fluoro-2,4-pyrimidinediamine]: the pIC50 under setting [1] was 6.27.

Turning to `Cc1ccc(Nc2ncc(F)c(Nc3ccc(OCc4cccnc4)cc3)n2)cc1S(N)(=O)=O` [Compound I-178, N2-(3-Aminosulfonyl-4-methylphenyl)-5-fluoro-N4-[4-(3-pyridylmethoxy)phenyl]-2,4-pyrimidinediamine], under setting [1], the pIC50 is 7.53.

`Cc1ccc(Nc2nc(Nc3ccc(C)c(S(N)(=O)=O)c3)ncc2F)cc1OCCN1CCOCC1` [Compound I-204, N2-(3-Aminosulfonyl-4-methylphenyl)-5-fluoro-N4-[4-methyl-3-(2-morpholinoethyloxy)phenyl]2,4-pyrimidinediamine]: the pIC50 under setting [1] is 5.78.

As to `Cc1nnc(COc2ccc(Nc3nc(Nc4ccc(C)c(S(N)(=O)=O)c4)ncc3F)cc2)o1` [Compound I-279, N2-(3-Aminosulfonyl-4-methylphenyl)-5-fluoro-N4-[4-(5-methyl-1,3,4-oxadiazol-2-yl)methoxyphenyl]-2,4-pyrimidinediamine], the negative-log IC50 (pIC50) under setting [1] was 6.78.

On to `Cc1ccc(Nc2ncc(F)c(Nc3cnc4c(c3)OC(C)(C)C(=O)N4CC#N)n2)cc1S(N)(=O)=O` [Compound V-14, N2-(3-Aminosulfonyl-4-methylphenyl)-N4-[2,2-dimethyl-3-oxo-4-cyanomethyl-5-pyrid[1,4]oxazin-7-yl]-5-fluoro-2,4-pyrimidinediamine], for which, under “primary human T-cells stimulated with IL-2, proliferation”, the negative logarithm of the IC50 (pIC50) is 5.59.

On to `Cc1ccc(Nc2ncc(F)c(Nc3cccc(OC4CCN(C)CC4)c3)n2)cc1S(N)(=O)=O` [II-2, N2-(3-Aminosulfonyl-4-methylphenyl)-5-fluoro-N4-{3-[(1-methylpiperidin-4-yl)oxy]phenyl}-2,4-pyrimidinediamine], for which the pIC50 under setting [1] was 5.82.

With `Cc1ccc(Nc2ncc(F)c(Nc3ccc(OC4CCN(C)CC4)c(C(F)(F)F)c3)n2)cc1S(N)(=O)=O` [II-6, N2-(3-Aminosulfonyl-4-methylphenyl)-5-fluoro-N4-{4-[(1-methylpiperidin-4-yl)oxy]-3-trifluoromethylphenyl}-2,4-pyrimidinediamine], under setting [1], the pIC50 is 5.91.

For the compound `Cc1ccc(Nc2ncc(F)c(Nc3ccc(OC4CCN(C)CC4)cc3)n2)cc1S(N)(=O)=O` [II-7, N2-(3-Aminosulfonyl-4-methylphenyl)-5-fluoro-N4-{4-[(1-methylpiperidin-4-yl)oxy]phenyl}-2,4-pyrimidinediamine], the pIC50 under setting [1] was 6.28.

Take `NS(=O)(=O)c1cccc(Nc2ncc(F)c(Nc3ccc(Oc4cccnc4)cc3)n2)c1` [II-11, N2-(3-Aminosulfonylphenyl)-5-fluoro-N4-[4-(3-pyridyloxy)phenyl]-2,4-pyrimidinediamine]: the pIC50 under setting [1] was 6.70.

Regarding `Cc1ccc(Nc2ncc(F)c(Nc3ccc(CCC#N)c(F)c3)n2)cc1S(N)(=O)=O` [III-17, N2-(3-Aminosulfonyl-4-methylphenyl)-5-fluoro-N4-[4-(2-cyanoethyl)-3-fluorophenyl]-2,4-pyrimidinediamine], under setting [1], the negative logarithm of the IC50 (pIC50) is 6.70.

Consider `N#CCCc1ccc(Nc2nc(Nc3cccc(S(N)(=O)=O)c3)ncc2F)cc1F` [III-18, N2-(3-Aminosulfonylphenyl)-N4-[4-(2-cyanoethyl)-3-fluorophenyl]-5-fluoro-2,4-pyrimidinediamine], for which the pIC50 under setting [1] is 6.87.

Consider `Cc1ccc(Nc2ncc(F)c(Nc3ccc(CCC#N)c(Cl)c3)n2)cc1S(N)(=O)=O` [III-21, N2-(3-Aminosulfonyl-4-methylphenyl)-N4-[3-chloro-4-(2-cyanoethyl)phenyl]-5-fluoro-2,4-pyrimidinediamine], for which the pIC50 under setting [1] is 6.94.

For `N#CCCc1ccc(Nc2nc(Nc3cccc(S(N)(=O)=O)c3)ncc2F)cc1Cl` [III-22, N2-(3-Aminosulfonylphenyl)-N4-[3-chloro-4-(2-cyanoethyl)phenyl]-5-fluoro-2,4-pyrimidinediamine], the negative logarithm of the IC50 (pIC50) under setting [1] was 7.12.

With `Cc1ccc(Nc2ncc(F)c(Nc3ccc(CCOC(N)=O)cc3)n2)cc1S(N)(=O)=O` [III-53, N4-{4-[2-(Aminocarbonyloxy)ethyl]phenyl}-N2-(3-aminosulfonyl-4-methylphenyl)-5-fluoro-2,4-pyrimidinediamine], the pIC50 under setting [1] is 6.54.

With `NC(=O)OCCc1ccc(Nc2nc(Nc3cccc(S(N)(=O)=O)c3)ncc2F)cc1` [III-54, N4-{4-[2-(Aminocarbonyloxy)ethyl]phenyl}-N2-(3-aminosulfonylphenyl)-5-fluoro-2,4-pyrimidinediamine], the negative-log IC50 (pIC50) under setting [1] was 6.85.

On to `COc1ccc(Nc2ncc(F)c(Nc3ccc(Cc4ccncc4)cc3)n2)cc1S(N)(=O)=O` [III-66, N2-(3-Aminosulfonyl-4-methoxyphenyl)-5-fluoro-N4-[4-(4-pyridinylmethyl)phenyl]-2,4-pyrimidinediamine], for which, under setting [1], the pIC50 was 5.94.

With `Cc1ccc(Nc2ncc(F)c(Nc3ccc(Cc4ccncc4)cc3)n2)cc1S(N)(=O)=O` [III-74, N2-(3-Aminosulfonyl-4-methylphenyl)-5-fluoro-N4-[4-(4-pyridinylmethyl)phenyl]-2,4-pyrimidinediamine], under setting [1], the pIC50 was 6.76.
